What was measured:
Assay in all cases: Kinase panel, CaNDY 1 µM
Assay type in all cases: biochemical
[1] = target: T1, Erk1 (Homo sapiens, UniProt P27361); conditions: CaNDY 1 µM relative to DMSO
T1 construct: purchased Carna Biosciences

[2] = target: T2, Haspin (Homo sapiens, UniProt Q8TF76); set-up: purchased Carna Biosciences
T2 sequence (Q8TF76 1-798): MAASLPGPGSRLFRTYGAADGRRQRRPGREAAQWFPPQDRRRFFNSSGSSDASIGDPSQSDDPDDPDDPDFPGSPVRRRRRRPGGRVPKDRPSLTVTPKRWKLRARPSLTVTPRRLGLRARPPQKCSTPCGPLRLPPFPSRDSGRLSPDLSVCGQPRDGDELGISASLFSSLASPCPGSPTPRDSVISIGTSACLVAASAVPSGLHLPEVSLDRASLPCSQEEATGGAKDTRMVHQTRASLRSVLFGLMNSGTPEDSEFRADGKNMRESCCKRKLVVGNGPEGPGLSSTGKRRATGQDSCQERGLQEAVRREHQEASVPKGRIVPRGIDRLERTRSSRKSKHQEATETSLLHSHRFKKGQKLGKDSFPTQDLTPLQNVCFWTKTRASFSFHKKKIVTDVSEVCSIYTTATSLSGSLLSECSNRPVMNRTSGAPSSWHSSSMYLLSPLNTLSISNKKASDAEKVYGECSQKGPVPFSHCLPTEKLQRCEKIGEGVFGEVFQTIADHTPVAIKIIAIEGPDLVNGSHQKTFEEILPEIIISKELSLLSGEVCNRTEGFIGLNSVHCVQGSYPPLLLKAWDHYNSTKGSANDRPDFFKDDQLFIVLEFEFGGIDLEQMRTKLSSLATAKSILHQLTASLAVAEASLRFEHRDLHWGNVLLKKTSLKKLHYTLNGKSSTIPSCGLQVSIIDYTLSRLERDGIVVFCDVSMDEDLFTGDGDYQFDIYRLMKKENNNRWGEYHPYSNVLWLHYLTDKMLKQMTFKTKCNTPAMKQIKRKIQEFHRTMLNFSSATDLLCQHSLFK
Description: (§1) Detailed information on the assay conditions is available on the website of Carna Biosciences (http://www.carnabio.com/english/index.html; Kobe, Japan). In brief, full-length human recombinant kinases were expressed using a baculovirus expression system as amino-terminal GST-fusion proteins, and purified by glutathione-Sepharose chromatography. The GenBank accession numbers of DYRK1A, DYRK1B, DYRK2, and DYRK3 were NP_001387.2, NP_004705.1, NP_003574.1, and NP_003573.2. Kinase activities were evaluated by Off-chip Mobility Shift Assay after reaction of 1 μM of the substrate DYRKtide-F with ATP (25 μM for DYRK1A, 50 μM for DYRK1B, 10 μM for DYRK2, and 5 μM for DYRK3). For each compound, a DMSO solution was diluted in assay buffer to yield a final concentration of 1% DMSO. After incubation for one hour at room temperature, substrate phosphorylation was analyzed by electrophoretic separation of the substrate and products using a Caliper LC3000 platform (Caliper Life Sciences, Mountain View, CA, USA). The phosphorylated product (P)/(P + substrate) ratio was calculated at each concentration of each small molecule and the percent inhibition was expressed relative to a control assay in the absence of the small molecule. […] The IC50 of each compound was calculated by interpolation on a log-concentration-response curve fitted with a four-parameter logistic equation.
(§2) All kinase assays were carried out at Carna Biosciences. The inhibitory map was made with Kinome Render[36].

[3] = target: DYRK1A (Homo sapiens, UniProt Q13627); set-up: purchased Carna Biosciences
Description: as §1, §2

[4] = target: DYRK1B (Homo sapiens, UniProt Q9Y463); set-up: purchased Carna Biosciences
Chain of DYRK1B (Q9Y463 whole entry): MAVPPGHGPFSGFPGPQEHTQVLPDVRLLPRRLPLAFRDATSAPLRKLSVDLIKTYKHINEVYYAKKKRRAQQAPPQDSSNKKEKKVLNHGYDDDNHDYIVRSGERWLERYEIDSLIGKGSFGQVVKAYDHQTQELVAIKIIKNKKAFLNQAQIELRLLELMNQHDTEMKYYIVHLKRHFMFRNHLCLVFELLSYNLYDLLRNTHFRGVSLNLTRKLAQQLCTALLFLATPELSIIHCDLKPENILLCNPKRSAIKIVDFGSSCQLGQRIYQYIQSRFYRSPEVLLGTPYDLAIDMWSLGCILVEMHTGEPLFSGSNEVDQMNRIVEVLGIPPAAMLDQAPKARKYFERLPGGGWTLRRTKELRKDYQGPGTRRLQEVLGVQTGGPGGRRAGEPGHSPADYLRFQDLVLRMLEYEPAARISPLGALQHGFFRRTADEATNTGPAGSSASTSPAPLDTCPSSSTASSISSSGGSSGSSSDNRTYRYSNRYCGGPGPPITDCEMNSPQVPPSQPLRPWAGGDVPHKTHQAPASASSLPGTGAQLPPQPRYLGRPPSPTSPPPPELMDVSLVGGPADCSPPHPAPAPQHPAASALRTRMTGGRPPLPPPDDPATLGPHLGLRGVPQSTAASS
Description: as §1, §2

[5] = target: T3, HGK (Homo sapiens, UniProt O95819); conditions: CaNDY 1 µM relative to DMSO
T3 construct: purchased Carna Biosciences
T3 sequence (O95819 whole entry): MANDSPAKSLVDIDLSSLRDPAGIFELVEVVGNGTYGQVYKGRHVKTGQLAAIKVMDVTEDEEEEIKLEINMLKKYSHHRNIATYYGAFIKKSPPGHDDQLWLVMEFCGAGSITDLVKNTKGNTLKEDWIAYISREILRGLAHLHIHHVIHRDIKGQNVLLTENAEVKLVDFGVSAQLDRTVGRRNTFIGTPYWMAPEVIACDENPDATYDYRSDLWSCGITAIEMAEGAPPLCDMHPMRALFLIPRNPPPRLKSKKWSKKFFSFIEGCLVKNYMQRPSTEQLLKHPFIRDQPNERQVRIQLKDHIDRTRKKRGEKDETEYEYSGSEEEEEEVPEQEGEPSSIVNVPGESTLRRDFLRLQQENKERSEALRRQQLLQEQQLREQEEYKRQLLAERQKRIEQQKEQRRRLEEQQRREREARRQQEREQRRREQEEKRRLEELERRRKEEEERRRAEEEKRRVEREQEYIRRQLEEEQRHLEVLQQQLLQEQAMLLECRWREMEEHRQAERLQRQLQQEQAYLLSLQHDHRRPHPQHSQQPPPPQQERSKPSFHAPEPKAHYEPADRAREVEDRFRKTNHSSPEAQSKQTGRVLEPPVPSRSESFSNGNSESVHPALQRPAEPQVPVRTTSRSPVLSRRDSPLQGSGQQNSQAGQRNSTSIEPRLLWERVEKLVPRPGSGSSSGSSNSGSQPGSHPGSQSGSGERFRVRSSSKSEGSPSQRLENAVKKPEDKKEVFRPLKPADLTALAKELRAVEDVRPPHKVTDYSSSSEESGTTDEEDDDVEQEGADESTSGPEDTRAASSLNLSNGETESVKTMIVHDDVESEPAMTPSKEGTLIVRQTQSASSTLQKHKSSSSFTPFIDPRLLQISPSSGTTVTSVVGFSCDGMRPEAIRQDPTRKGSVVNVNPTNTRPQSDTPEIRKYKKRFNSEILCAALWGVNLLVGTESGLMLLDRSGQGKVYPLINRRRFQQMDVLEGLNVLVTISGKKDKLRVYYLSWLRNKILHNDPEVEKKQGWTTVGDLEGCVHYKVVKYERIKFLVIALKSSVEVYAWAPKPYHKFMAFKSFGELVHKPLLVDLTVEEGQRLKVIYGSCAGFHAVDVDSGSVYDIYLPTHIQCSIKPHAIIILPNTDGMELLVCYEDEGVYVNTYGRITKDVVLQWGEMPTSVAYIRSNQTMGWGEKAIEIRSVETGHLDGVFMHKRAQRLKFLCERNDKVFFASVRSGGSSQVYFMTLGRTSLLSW

[6] = target: T4, PDGFRα(T674I) (Homo sapiens, UniProt P16234, T674I); conditions: CaNDY 1 µM relative to DMSO
T4 construct: purchased Carna Biosciences

[7] = target: T5, FYN (Homo sapiens, UniProt P06241); conditions: CaNDY 1 µM relative to DMSO
T5 construct: purchased Carna Biosciences

[8] = target: T6, NDR2 (Homo sapiens, UniProt Q9Y2H1); conditions: CaNDY 1 µM relative to DMSO
T6 construct: purchased Carna Biosciences
T6 sequence (Q9Y2H1 whole entry): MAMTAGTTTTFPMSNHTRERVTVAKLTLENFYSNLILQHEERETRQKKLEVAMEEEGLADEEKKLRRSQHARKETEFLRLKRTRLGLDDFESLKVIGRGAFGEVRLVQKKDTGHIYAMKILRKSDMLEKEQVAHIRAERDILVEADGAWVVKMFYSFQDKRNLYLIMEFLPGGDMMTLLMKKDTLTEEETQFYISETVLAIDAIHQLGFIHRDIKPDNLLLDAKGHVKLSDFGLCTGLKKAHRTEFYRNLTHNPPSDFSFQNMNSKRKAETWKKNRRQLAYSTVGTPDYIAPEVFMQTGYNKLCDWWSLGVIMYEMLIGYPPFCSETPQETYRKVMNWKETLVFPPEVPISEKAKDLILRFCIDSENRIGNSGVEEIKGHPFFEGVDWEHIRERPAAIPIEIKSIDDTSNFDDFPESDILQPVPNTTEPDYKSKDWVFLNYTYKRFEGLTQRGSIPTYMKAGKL

[9] = target: T7, TNK1 (Homo sapiens, UniProt Q13470); conditions: CaNDY 1 µM relative to DMSO
T7 construct: purchased Carna Biosciences

[10] = target: T8, PIM2 (Homo sapiens, UniProt Q9P1W9); conditions: CaNDY 1 µM relative to DMSO
T8 construct: purchased Carna Biosciences

[11] = target: T9, KIT(V560G) (Homo sapiens, UniProt P10721, V560G); conditions: CaNDY 1 µM relative to DMSO
T9 construct: purchased Carna Biosciences

[12] = target: T10, IRAK1 (Homo sapiens, UniProt P51617); conditions: CaNDY 1 µM relative to DMSO
T10 construct: purchased Carna Biosciences

[13] = target: T11, MAP3K1_Cascade (Homo sapiens, UniProt Q13233); conditions: CaNDY 1 µM relative to DMSO
T11 construct: purchased Carna Biosciences
T11 sequence (Q13233 whole entry): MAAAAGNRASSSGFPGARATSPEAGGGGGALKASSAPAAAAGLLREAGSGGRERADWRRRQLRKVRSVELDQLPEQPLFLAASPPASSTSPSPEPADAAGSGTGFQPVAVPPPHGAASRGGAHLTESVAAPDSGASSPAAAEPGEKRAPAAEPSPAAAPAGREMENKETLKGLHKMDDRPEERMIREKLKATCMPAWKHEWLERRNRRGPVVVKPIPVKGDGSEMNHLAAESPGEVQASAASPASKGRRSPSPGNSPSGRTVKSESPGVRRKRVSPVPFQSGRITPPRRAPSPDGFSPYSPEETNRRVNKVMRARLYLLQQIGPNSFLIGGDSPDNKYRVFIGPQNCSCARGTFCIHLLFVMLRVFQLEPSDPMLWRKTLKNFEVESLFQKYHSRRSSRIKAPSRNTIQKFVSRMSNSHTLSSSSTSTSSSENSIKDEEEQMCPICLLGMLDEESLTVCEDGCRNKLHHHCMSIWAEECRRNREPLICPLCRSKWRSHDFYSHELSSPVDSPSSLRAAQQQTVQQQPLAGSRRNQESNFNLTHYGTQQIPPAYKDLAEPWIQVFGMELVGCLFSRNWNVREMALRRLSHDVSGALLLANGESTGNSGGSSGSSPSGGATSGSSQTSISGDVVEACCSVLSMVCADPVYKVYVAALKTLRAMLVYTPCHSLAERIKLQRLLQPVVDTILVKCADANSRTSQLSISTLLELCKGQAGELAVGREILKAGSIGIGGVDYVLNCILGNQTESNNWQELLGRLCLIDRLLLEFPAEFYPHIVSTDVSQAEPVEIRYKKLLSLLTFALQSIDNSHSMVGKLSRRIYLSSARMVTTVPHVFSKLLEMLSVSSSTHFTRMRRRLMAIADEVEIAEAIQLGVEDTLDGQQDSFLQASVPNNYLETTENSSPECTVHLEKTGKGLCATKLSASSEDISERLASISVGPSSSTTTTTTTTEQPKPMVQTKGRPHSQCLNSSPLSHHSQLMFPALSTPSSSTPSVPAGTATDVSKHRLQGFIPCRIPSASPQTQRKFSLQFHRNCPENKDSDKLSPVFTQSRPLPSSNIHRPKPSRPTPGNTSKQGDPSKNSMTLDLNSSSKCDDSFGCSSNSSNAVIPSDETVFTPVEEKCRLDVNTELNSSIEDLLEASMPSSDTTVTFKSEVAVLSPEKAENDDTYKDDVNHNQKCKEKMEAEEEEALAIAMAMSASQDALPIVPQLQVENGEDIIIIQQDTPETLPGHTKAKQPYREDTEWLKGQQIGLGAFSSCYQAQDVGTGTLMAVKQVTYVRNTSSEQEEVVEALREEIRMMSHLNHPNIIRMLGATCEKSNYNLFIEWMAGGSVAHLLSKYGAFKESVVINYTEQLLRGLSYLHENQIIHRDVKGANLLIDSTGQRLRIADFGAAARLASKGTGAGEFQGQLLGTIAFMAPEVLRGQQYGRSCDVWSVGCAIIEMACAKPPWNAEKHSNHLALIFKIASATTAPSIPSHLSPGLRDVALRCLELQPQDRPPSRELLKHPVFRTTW

[14] = target: T12, MLK1_Cascade (Homo sapiens, UniProt P80192); conditions: CaNDY 1 µM relative to DMSO
T12 construct: purchased Carna Biosciences
T12 sequence (P80192 whole entry): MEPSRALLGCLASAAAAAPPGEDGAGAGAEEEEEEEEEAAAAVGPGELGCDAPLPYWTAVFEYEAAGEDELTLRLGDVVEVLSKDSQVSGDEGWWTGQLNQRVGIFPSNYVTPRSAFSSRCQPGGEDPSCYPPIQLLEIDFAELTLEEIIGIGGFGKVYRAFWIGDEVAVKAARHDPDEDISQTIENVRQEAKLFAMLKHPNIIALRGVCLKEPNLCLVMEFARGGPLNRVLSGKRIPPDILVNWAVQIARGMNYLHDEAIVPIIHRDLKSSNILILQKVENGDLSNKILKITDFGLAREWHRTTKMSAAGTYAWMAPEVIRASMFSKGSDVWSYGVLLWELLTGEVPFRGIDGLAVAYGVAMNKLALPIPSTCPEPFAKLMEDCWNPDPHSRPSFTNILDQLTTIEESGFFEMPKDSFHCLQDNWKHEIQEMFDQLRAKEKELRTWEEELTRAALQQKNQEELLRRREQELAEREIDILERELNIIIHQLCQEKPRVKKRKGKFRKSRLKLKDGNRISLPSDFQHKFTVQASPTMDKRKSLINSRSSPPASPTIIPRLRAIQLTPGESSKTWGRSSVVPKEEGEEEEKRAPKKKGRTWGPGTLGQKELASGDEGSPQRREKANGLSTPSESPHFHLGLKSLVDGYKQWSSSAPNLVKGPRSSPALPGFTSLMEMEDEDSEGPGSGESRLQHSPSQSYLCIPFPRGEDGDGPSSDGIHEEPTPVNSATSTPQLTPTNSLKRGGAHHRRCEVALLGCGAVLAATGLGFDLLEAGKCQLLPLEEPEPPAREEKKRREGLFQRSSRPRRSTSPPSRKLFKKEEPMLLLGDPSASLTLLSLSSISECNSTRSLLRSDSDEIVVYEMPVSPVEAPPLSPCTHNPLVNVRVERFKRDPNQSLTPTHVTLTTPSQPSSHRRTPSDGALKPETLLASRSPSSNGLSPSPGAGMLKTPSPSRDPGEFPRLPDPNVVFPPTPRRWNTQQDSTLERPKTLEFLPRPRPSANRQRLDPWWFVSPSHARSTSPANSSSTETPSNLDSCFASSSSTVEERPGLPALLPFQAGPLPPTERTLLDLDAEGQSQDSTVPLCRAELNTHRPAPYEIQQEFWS

[15] = target: T13, EGFR(T790M/L858R) (Homo sapiens, UniProt P00533, L858R/T790M); conditions: CaNDY 1 µM relative to DMSO
T13 construct: purchased Carna Biosciences

[16] = target: T14, MAP3K5_Cascade (Homo sapiens, UniProt Q99683); conditions: CaNDY 1 µM relative to DMSO
T14 construct: purchased Carna Biosciences

[17] = 1 μM CaNDY, read-out: percentage inhibition

[H]/N=C1/NC(=O)C(=Cc2ccc3c(c2)CCO3)S1 [CaNDY, (Z)-5-[(2,3-dihydrobenzofuran-5-yl)methylene]-2-iminothiazolidin-4-one]
remaining activity at 1 µM [1]: 96.2% | inhibition at 1 µM [2, 17]: > 90% | remaining activity at 1 µM ([2]; CaNDY 1 µM relative to DMSO): 3.8% | inhibition at 1 µM [3, 17]: > 90% | remaining activity at 1 µM ([3]; CaNDY 1 µM relative to DMSO): 0.9% | inhibition at 1 µM [4, 17]: > 90% | remaining activity at 1 µM ([4]; CaNDY 1 µM relative to DMSO): 3.7% | remaining activity at 1 µM [5]: 42.1% | remaining activity at 1 µM [6]: 94% | remaining activity at 1 µM [7]: 102% | remaining activity at 1 µM [8]: 91.9% | remaining activity at 1 µM [9]: 99.7% | remaining activity at 1 µM [10]: 71.6% | remaining activity at 1 µM [11]: 101% | remaining activity at 1 µM [12]: 87.4% | remaining activity at 1 µM [13]: 99% | remaining activity at 1 µM [14]: 99.9% | %Activity [15]: 106.6% | remaining activity at 1 µM [16]: 103%

Source: publication PMC4522657, “Identification of a DYRK1A Inhibitor that Induces Degradation of the Target Kinase using Co-chaperone CDC37 fused with Luciferase nanoKAZ” (Scientific Reports, 2015)
